Key:
weaned pigs [1] = experiment: Preclinical study of the effects of azaperone administered via drinking water: body weight per pig; format: in vivo
Procedure: Preclinical Study of the Effects of Azaperone Administered Via Drinking Water The study was performed in weaned pigs to investigate the effect of azaperone that was continuously orally administered via drinking water on behaviour, feed conversion, growth and homogeneity of growth. Groups of approximately 250 pigs were enrolled in the study starting from the moment they were weaned. The pigs were housed according to everyday farming conditions in a conventional pig farm. All pigs were housed in similar buildings. Each group was housed in 2 compartments, gilts and barrows were housed in separate compartments. Pigs were kept in pens of approximately 12 individuals each. After weaning, the piglets were housed in continuous artificial light for the first 48 hours. Afterwards, pigs were housed in continuous darkness for the further duration of the study, except during observations (twice a day). During the course of the study, pigs were not vaccinated. A metaphylactic colistine treatment via drinking water was applied in each group starting from the fifth day after weaning. Treatment continued for seven days. Pigs were fed ad libitum. Troughs were filled automatically with a computerized system that records the supplied weight of feed per pen. During the first ten days of the nursery period, pigs were fed a pelleted weaner feed which had also been available to the piglets in the farrowing unit. Between the 10th and 15th day at the nursery, the weaner feed was gradually replaced by grower pellets which have been given until the 35th day. Finally a switch was made between the 35th and the 40th day from grower pellets to starter pellets. Tap water was available during the whole period of the study and was supplied via a water nipple in the feeding trough. The drinking water comprising azaperone was obtained by diluting Stresnil™ injection in water to obtain a concentration of 6 mg azaperone per liter drinking water. A primary dilution was prepared by diluting 90 ml of Stresnil™ 4% injectable solution with tap water to obtain 6 liters of preparation. This primary dilution was linked for 24 hours with an automatic dosing system which continuously diluted the preparation in the drinking water at a rate of 1 to 100. One preparation of the primary dilution was sufficient to treat 600 liters of drinking water which exceeded the anticipated daily consumed volume of water by the pigs in one compartment. The two following days, a new primary dilution was made fresh each morning and linked to the automatic dosing system for 24 hours. This study was a controlled parallel study with 4 sequential groups of approximately 250 weaned pigs each. The first and third group were treated with azaperone via the drinking water for 3 consecutive days. The second and fourth group were control groups treated with placebo (plain drinking water). After the completion of these four groups, two additional groups (one treated with azaperone and one control group) were included in the study to investigate more in detail the effect of the azaperone treatment on the behaviour of the pigs. In each of these additional groups, 5 pens of approximately 12 pigs were enclosed. On day one of the test period, water containing 6 mg azaperone per liter or placebo, was made available. Starting from the fourth day, the drinking water no longer contained azaperone. All pigs followed the normal procedures for further fattening. No pigs were brought to the slaughterhouse during the study (3 days dosing and 39 days follow-up). Body weights were determined for all pigs in groups 1 to 4. The body weight of each individual animal was determined a first time at the start of the study, just before movement to the nursery and a second time at the end of the study, after a period of 42 days in the nursery. […]

weaned pigs [2] = experiment: Behaviour of the animals per pen (groups 5 and 6: pigs lying down, eating or drinking, hierarchical fights); format: in vivo
Procedure: This study was a controlled parallel study with 4 sequential groups of approximately 250 weaned pigs each. The first and third group were treated with azaperone via the drinking water for 3 consecutive days. The second and fourth group were control groups treated with placebo (plain drinking water). After the completion of these four groups, two additional groups (one treated with azaperone and one control group) were included in the study to investigate more in detail the effect of the azaperone treatment on the behaviour of the pigs. In each of these additional groups, 5 pens of approximately 12 pigs were enclosed.
In order to assess the effect of the azaperone treatment on the behaviour of the animals after weaning, the occurrence of hierarchical fights was followed in groups 1 to 4 and recorded by the Principal Investigator during a period of 1 week after weaning. Every day a behaviour score of 0 to 2 was given to each pen:
In groups 1 to 4, behaviour of the pigs was always scored as normal although hierarchical fighting was reported on the farm. […] These two additional groups (one treated with azaperone and one control group) were closely monitored for behavioural changes. During the first 7 hours after weaning and movement to the nurseries, the occurrence and severity of hierarchical fights, the number of pigs laying down, and the number of pigs eating or drinking, was recorded. […]

pigs = details: cited from earlier work

Question: What does the source list for `O=C(CCCN1CCN(c2ccccn2)CC1)c1ccc(F)cc1` [azaperone]?
Answer: body weight gained during the study (weaned pigs [1]; 6 mg azaperone per liter drinking water for 3 days, 42 day test period, mean±SD): 16.3 ± 3.31 kg; Final BW CoV (coefficient of variation) (weaned pigs [1]; after 42 days in the nursery): 18%; Final BW (weaned pigs [1]; after 42 days in the nursery, 6 mg/liter drinking water for first 3 days): 23.62 kg; body weight gain CoV (coefficient of variation) (weaned pigs [1]; over 42 days): 20%; body weight gain (weaned pigs [1]; over 42 days, 6 mg/liter drinking water for first 3 days): 16.34 kg; homogeneity of body weight distribution at the end of the testing period (weaned pigs [1]; versus placebo groups): more homogenous body weight distribution; number of pigs lying down or eating versus placebo (weaned pigs [2]; groups 5 and 6, first 7 hours after initiation of treatment, 6 mg/liter drinking water): no difference; sedative effect (weaned pigs [2]; oral via drinking water, 6 mg/liter): absence of a sedative effect; effect on weight gain, feed consumption or feed efficiency (pigs; intramuscular administration to pigs, Gonyou et al., J. Anim. Sci. 1988): did not had significant effect; effect in promoting relative growth rate (pigs; intramuscular injection to pigs, Blackshaw, Aust. Vet. J. 1981): no effect; weight gain (pigs; intramuscular injection to pigs, Porter and Slusser, Veterinary Medicine 1985): increased weight gain
